From PubChem BioAssay (NCI)
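Grown in 96-well plates, cells were treated for 48 hours with each compound at five concentrations. Insufficient inhibition: endpoint recorded as highest concentration tested. GI50 = concentration required for 50% inhibition of growth. TGI marks complete inhibition of growth.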

These compounds were tested on KM20L2 colon (assay: growth of human tumour cells (NCI), 48 h).
For `CCOC(=O)N[C@H]1CCc2cc(OC)c(OC)c(OC)c2-c2ccc(SC)c(=O)cc21`, the TGI was less than 0.01 µM. In the case of `COc1ccc2c(c1OCC(=O)O)C(=O)C(CCC(=O)O)CC2` (configuration not stated), the TGI is reported as greater than 100 µM. `Cc1ccc2nc(/C(=C/c3ccc(/C=C(\NC(=O)c4ccccc4)c4nc5ccc(C)cc5[nH]4)c(C)c3)NC(=O)c3ccccc3)[nH]c2c1` was tested, and the TGI was 45.3 µM. Compound `O=C(Nc1cccc(Cl)c1)C(=O)C(C(=O)c1ccc2ccccc2c1)C1OC(=O)c2ccccc21` (configuration not stated) has a TGI greater than 100 µM. Compound `N#CC(C(=O)/C(=N\NC(N)=O)C(C#N)c1ccc(Cl)cc1)c1ccc(Cl)cc1` (configuration not stated) has a TGI greater than 100 µM. `CSc1nc(SC)c2c(C#N)[nH]nc2n1` was tested, and the TGI was greater than 100 µM. With `COc1c(O)c2c(=O)cc3c4c5c(cc(=O)c6c(O)c(OC)c(CC(C)O)c(c(c1CC(C)O)c24)c65)OCO3` (configuration not stated) the TGI was 1.69 µM. Compound `COc1ccc(CCN(C)C2CCC(C#N)(c3ccc(OC)c(OC)c3)CC2)cc1OC` (configuration not stated) has a TGI greater than 100 µM. `Cc1c(N(C)C)ccc2c(=O)c3cccc(CC(=O)O)c3oc12` was tested, and the TGI was greater than 100 µM. Compound `C/C(CC(=O)Nc1ccc(C)c(C)c1)=N\N(c1ccccc1)c1ccccc1` has a TGI of 26 µM. In the case of `COC(=O)/C(=N\NC(N)=S)C(C(=O)OC)C(=O)C(=O)Nc1ccc(C)cc1` (configuration not stated), the TGI is reported as greater than 100 µM. `O=C(OC1CCC(=C2SCCCS2)[C@H]1C1SCCCS1)c1ccccc1` (some centres not stated) gave a TGI greater than 100 µM. For `O=C1CCC2(c3ccc(Cl)cc3)Nc3cc(Cl)ccc3N12` (configuration not stated), the TGI was 28.9 µM. Work on `CC1(C)COC(c2cccc3c2C(=O)c2cccc(Cl)c2-3)=N1` yielded a TGI greater than 100 µM. Compound `CN(C)CCC(/C=C/c1ccccc1)=N\Nc1ccccc1` has a TGI of 0.655 µM. Compound `C/C(N=NC(=S)N1CC2CCC(CC2)C1)=C1\C=CC=CN1O` has a TGI greater than 100 µM. In the case of `CCOC(=O)c1ccc(/C(C)=N/NC(N)=S)cc1`, the TGI is reported as greater than 100 µM. With `c1ccc2c(OCCSCCCCCCCCCCSCCOc3cccc4ccccc34)cccc2c1` the TGI was greater than 100 µM. Compound `Cc1cc2c(=O)c3ccccc3[nH]c2c(C(N)=O)c1C` has a TGI greater than 100 µM. `CCC[CH2][Sn]([CH2]CCC)([O]C(=O)c1ccc(OC)c(OC)c1OC)[O][Sn]([CH2]CCC)([CH2]CCC)[O]C(=O)c1ccc(OC)c(OC)c1OC` was tested, and the GI50 was 0.76 µM and the TGI was 2.12 µM. For `CN1CCC(=O)/C(=C/c2ccccc2)C1`, the TGI was 26.6 µM.

These compounds were tested on MDA-N (assay: growth of human tumour cells (NCI), 48 h).
In the case of `CCOC(=O)N[C@H]1CCc2cc(OC)c(OC)c(OC)c2-c2ccc(SC)c(=O)cc21`, the TGI is reported as greater than 100 µM. In the case of `Cc1c(N(C)C)ccc2c(=O)c3cccc(CC(=O)O)c3oc12`, the TGI is reported as greater than 100 µM. In the case of `C/C(N=NC(=S)N1CC2CCC(CC2)C1)=C1\C=CC=CN1O`, the TGI is reported as greater than 100 µM. Compound `CCC[CH2][Sn]([CH2]CCC)([O]C(=O)c1ccc(OC)c(OC)c1OC)[O][Sn]([CH2]CCC)([CH2]CCC)[O]C(=O)c1ccc(OC)c(OC)c1OC` has a GI50 of 0.357 µM and a TGI of 1.66 µM.

The compounds below were run on RXF-631 renal (assay: growth of human tumour cells (NCI), 48 h).
`COC(=O)C(=Cc1cc(OC)c(OC)c(OC)c1-c1cc2c(cc1C1(C)OCCS1)OCO2)C(=O)OC` (configuration not stated) was tested, and the TGI was greater than 100 µM. Compound `COc1ccc(OCC(=O)O)c2c1CCCC2=O` has a TGI greater than 100 µM. In the case of `Cc1nc(Nc2ccc(Cl)cc2)sc1C(=O)NNC(=S)NN`, the TGI is reported as 36.1 µM. In the case of `COc1ccc2c(c1OCC(=O)O)C(=O)C(CCC(=O)O)CC2` (configuration not stated), the TGI is reported as greater than 100 µM. Work on `Cc1ccc2nc(/C(=C/c3ccc(/C=C(\NC(=O)c4ccccc4)c4nc5ccc(C)cc5[nH]4)c(C)c3)NC(=O)c3ccccc3)[nH]c2c1` yielded a TGI of 91.3 µM. With `O=C(Nc1cccc(Cl)c1)C(=O)C(C(=O)c1ccc2ccccc2c1)C1OC(=O)c2ccccc21` (configuration not stated) the TGI was 81.2 µM. In the case of `N#CC(C(=O)/C(=N\NC(N)=O)C(C#N)c1ccc(Cl)cc1)c1ccc(Cl)cc1` (configuration not stated), the TGI is reported as greater than 100 µM. `CSc1nc(SC)c2c(C#N)[nH]nc2n1` gave a TGI greater than 100 µM. `COc1ccc(CCN(C)C2CCC(C#N)(c3ccc(OC)c(OC)c3)CC2)cc1OC` (configuration not stated) gave a TGI greater than 100 µM. With `Cc1c(N(C)C)ccc2c(=O)c3cccc(CC(=O)O)c3oc12` the TGI was greater than 100 µM. Compound `COC(=O)/C(=N\NC(N)=S)C(C(=O)OC)C(=O)C(=O)Nc1ccc(C)cc1` (configuration not stated) has a TGI greater than 100 µM. `O=C(OC1CCC(=C2SCCCS2)[C@H]1C1SCCCS1)c1ccccc1` (some centres not stated) gave a TGI greater than 100 µM. For `O=C1CCC2(c3ccc(Cl)cc3)Nc3cc(Cl)ccc3N12` (configuration not stated), the TGI was 28.9 µM. `CC1(C)COC(c2cccc3c2C(=O)c2cccc(Cl)c2-3)=N1` showed a TGI greater than 100 µM. `C/C(N=NC(=S)N1CC2CCC(CC2)C1)=C1\C=CC=CN1O` showed a TGI greater than 100 µM. `CCOC(=O)c1ccc(/C(C)=N/NC(N)=S)cc1` gave a TGI greater than 100 µM. With `Cc1cc2c(=O)c3ccccc3[nH]c2c(C(N)=O)c1C` the TGI was greater than 100 µM. With `CN1CCC(=O)/C(=C/c2ccccc2)C1` the TGI was 33.9 µM.

These compounds were tested on SNB-78 CNS (assay: growth of human tumour cells (NCI), 48 h).
Work on `COc1ccc(OCC(=O)O)c2c1CCCC2=O` yielded a TGI greater than 100 µM. Compound `Cc1nc(Nc2ccc(Cl)cc2)sc1C(=O)NNC(=S)NN` has a TGI of 57.2 µM. With `CCOC(=O)N[C@H]1CCc2cc(OC)c(OC)c(OC)c2-c2ccc(SC)c(=O)cc21` the TGI was greater than 100 µM. For `COc1ccc2c(c1OCC(=O)O)C(=O)C(CCC(=O)O)CC2` (configuration not stated), the TGI was greater than 100 µM. `Cc1ccc2nc(/C(=C/c3ccc(/C=C(\NC(=O)c4ccccc4)c4nc5ccc(C)cc5[nH]4)c(C)c3)NC(=O)c3ccccc3)[nH]c2c1` gave a TGI of 79.1 µM. For `O=C(Nc1cccc(Cl)c1)C(=O)C(C(=O)c1ccc2ccccc2c1)C1OC(=O)c2ccccc21` (configuration not stated), the TGI was 50.6 µM. `N#CC(C(=O)/C(=N\NC(N)=O)C(C#N)c1ccc(Cl)cc1)c1ccc(Cl)cc1` (configuration not stated) showed a TGI greater than 100 µM. For `CSc1nc(SC)c2c(C#N)[nH]nc2n1`, the TGI was greater than 100 µM. With `COc1c(O)c2c(=O)cc3c4c5c(cc(=O)c6c(O)c(OC)c(CC(C)O)c(c(c1CC(C)O)c24)c65)OCO3` (configuration not stated) the TGI was 8.04 µM. In the case of `Cc1c(N(C)C)ccc2c(=O)c3cccc(CC(=O)O)c3oc12`, the TGI is reported as greater than 100 µM. `C/C(CC(=O)Nc1ccc(C)c(C)c1)=N\N(c1ccccc1)c1ccccc1` was tested, and the TGI was greater than 100 µM. With `COC(=O)/C(=N\NC(N)=S)C(C(=O)OC)C(=O)C(=O)Nc1ccc(C)cc1` (configuration not stated) the TGI was greater than 100 µM. `O=C1CCC2(c3ccc(Cl)cc3)Nc3cc(Cl)ccc3N12` (configuration not stated) was tested, and the TGI was 43.4 µM. For `CC1(C)COC(c2cccc3c2C(=O)c2cccc(Cl)c2-3)=N1`, the TGI was greater than 100 µM. For `CN(C)CCC(/C=C/c1ccccc1)=N\Nc1ccccc1`, the TGI was 14.7 µM. In the case of `C/C(N=NC(=S)N1CC2CCC(CC2)C1)=C1\C=CC=CN1O`, the TGI is reported as greater than 100 µM. Work on `CCOC(=O)c1ccc(/C(C)=N/NC(N)=S)cc1` yielded a TGI greater than 100 µM. `c1ccc2c(OCCSCCCCCCCCCCSCCOc3cccc4ccccc34)cccc2c1` was tested, and the TGI was greater than 100 µM. In the case of `Cc1cc2c(=O)c3ccccc3[nH]c2c(C(N)=O)c1C`, the TGI is reported as greater than 100 µM. In the case of `CCC[CH2][Sn]([CH2]CCC)([O]C(=O)c1ccc(OC)c(OC)c1OC)[O][Sn]([CH2]CCC)([CH2]CCC)[O]C(=O)c1ccc(OC)c(OC)c1OC`, the GI50 is reported as 0.0392 µM and the TGI is reported as 0.211 µM. In the case of `CN1CCC(=O)/C(=C/c2ccccc2)C1`, the TGI is reported as 57.6 µM.

What follows are compounds tested on T-47D breast (assay: growth of human tumour cells (NCI), 48 h).
`CCOC(=O)N[C@H]1CCc2cc(OC)c(OC)c(OC)c2-c2ccc(SC)c(=O)cc21` was tested, and the TGI was greater than 100 µM. `Cc1c(N(C)C)ccc2c(=O)c3cccc(CC(=O)O)c3oc12` gave a TGI greater than 100 µM. Compound `C/C(N=NC(=S)N1CC2CCC(CC2)C1)=C1\C=CC=CN1O` has a TGI of 94.8 µM. Compound `CCC[CH2][Sn]([CH2]CCC)([O]C(=O)c1ccc(OC)c(OC)c1OC)[O][Sn]([CH2]CCC)([CH2]CCC)[O]C(=O)c1ccc(OC)c(OC)c1OC` has a GI50 of 0.0311 µM and a TGI of 0.295 µM.
